The source made the active and inactive calls. The calls are words filed in the database; no cut-off is given here.
How the values were obtained:
[1] = system: KB; assay: Anti-proliferative activity against human KB cells after 72 hrs by MTT assay; assay type: functional, cell-based
[2] = biological target: T1, Tubulin (Homo sapiens) (UniProt P68371+Q9H4B7+P0DPH7+P68366+Q13509+Q71U36+P04350+Q3ZCM7+P07437+P68363+Q9BQE3+Q6PEY2+Q13885+Q9BVA1+Q9BUF5); assay: Inhibition of tubulin (unknown origin) polymerization at 2.5 uM pre-incubated for 1 min measured for 1 min interval for 90 mins by fluorescence based assay; assay type: protein-complex assay
[3] = Anti-proliferative activity against human HT1080 cells after 72 hrs by MTT assay; assay type: functional, cell-based; details: HT-1080, 72 h
[4] = biological target: T1, Tubulin (Homo sapiens); assay: Inhibition of tubulin (unknown origin) polymerization at 10 uM pre-incubated for 1 min measured for 1 min interval for 90 mins by fluorescence based assay; assay type: protein-complex assay
[5] = biological target: T1, Tubulin (Homo sapiens); assay: (§1) Inhibition of tubulin (unknown origin) polymerization pre-incubated for 1 min measured for 1 min interval for 90 mins by fluorescence based assay; assay type: protein-complex assay
[6] = biological target: Tubulin; assay: as §1; assay type: protein-complex assay, Homo sapiens
[7] = biological target: T1, Tubulin (Homo sapiens); assay: Inhibition of tubulin (unknown origin) polymerization at 15 uM pre-incubated for 1 min measured for 1 min interval for 90 mins by fluorescence based assay; assay type: protein-complex assay
[8] = Anti-proliferative activity against human SGC7901 cells after 72 hrs by MTT assay; assay type: functional, cell-based; details: SGC-7901, 72 h
[9] = biological target: T1, Tubulin (Homo sapiens); assay: Inhibition of tubulin (unknown origin) polymerization at 5 uM pre-incubated for 1 min measured for 1 min interval for 90 mins by fluorescence based assay; assay type: protein-complex assay
[10] = system: SGC-7901; assay: Induction of microtubule network disruption in human SGC7901 cells at 0.4 uM after 24 hrs using DAPI immunofluorescence staining; assay type: cell-based
[11] = biological target: T1, Tubulin (Homo sapiens); assay: Inhibition of tubulin (unknown origin) polymerization at 1 uM pre-incubated for 1 min measured for 1 min interval for 90 mins by fluorescence based assay; assay type: protein-complex assay
[12] = biological target: T1, Tubulin (Homo sapiens); assay: Inhibition of tubulin (unknown origin) polymerization at 4 uM pre-incubated for 1 min measured for 1 min interval for 90 mins by fluorescence based assay; assay type: protein-complex assay
[13] = biological target: T1, Tubulin (Homo sapiens); assay: Inhibition of tubulin (unknown origin) polymerization at 2 uM pre-incubated for 1 min measured for 1 min interval for 90 mins by fluorescence based assay; assay type: protein-complex assay

| SMILES | IC50 [1] [µM] | IC50 [3] [µM] | IC50 [8] [µM] | further results |
| --- | --- | --- | --- | --- |
| COc1ccc(-c2sccc2-c2cc(OC)c(OC)c(OC)c2)cc1O | 6.27 | 1.94 | 0.58 | inhibition [2]: 7.4%; inhibition [4]: 48%; inhibition [5]: Dose-dependent effect; IC50 [6]: 9.76 µM; inhibition [7]: 72.3%; inhibition [9]: 20% |
| COc1ccc(-c2sccc2-c2cc(OC)c(OC)c(OC)c2)cc1[N+](=O)[O-] | 10.6 | 2.1 | 3.31 | – |
| COc1ccc(-c2ccsc2-c2cc(OC)c(OC)c(OC)c2)cc1 | 7.4 | 3.62 | 2.74 | – |
| CCOC(=O)c1cc(-c2cc(OC)c(OC)c(OC)c2)c(-c2cccc(Br)c2)s1 | > 100 | > 100 | > 100 | – |
| COc1ccc(-c2ccsc2-c2cc(OC)c(OC)c(OC)c2)cc1O | 1.53 | 2.12 | 0.52 | Activity [10]: Active; inhibition [11]: 10%; inhibition [12]: 39.3%; inhibition [13]: 23.3%; inhibition [4]: 87.5%; inhibition [5]: Dose-dependent effect; IC50 [6]: 5.01 µM |
| CCOC(=O)c1cc(-c2cc(OC)c(OC)c(OC)c2)c(-c2ccc(OC)c([N+](=O)[O-])c2)s1 | 15.8 | 12.7 | 18.1 | – |
| CCOC(=O)c1cc(-c2ccc(OC)cc2)c(-c2cc(OC)c(OC)c(OC)c2)s1 | 10.2 | 7.63 | 6.82 | – |
| COc1ccc(/C=C\c2cc(OC)c(OC)c(OC)c2)cc1O [COMBRETASTATIN A4] | 0.016 | 0.011 | 0.024 | Activity [10]: Active |
| COc1cc(-c2cc(C(=O)O)sc2-c2cccc(Br)c2)cc(OC)c1OC | 32.3 | > 100 | 93.4 | – |
| CCOC(=O)c1cc(-c2cc(OC)c(OC)c(OC)c2)c(-c2ccc(OC)cc2)s1 | 13.2 | 8.37 | 9.76 | – |
| COc1cc(-c2ccsc2-c2cccc(Br)c2)cc(OC)c1OC | > 100 | > 100 | 46.1 | – |
| COc1ccc(-c2ccsc2-c2cc(OC)c(OC)c(OC)c2)cc1[N+](=O)[O-] | 21 | 8.04 | 10.2 | – |
| CCOC(=O)c1cc(-c2ccc(OC)c(O)c2)c(-c2cc(OC)c(OC)c(OC)c2)s1 | > 100 | 82.5 | 20 | – |
| COc1ccc(-c2cc(C(=O)O)sc2-c2cc(OC)c(OC)c(OC)c2)cc1[N+](=O)[O-] | 43.7 | 38.1 | 21.6 | – |
| COc1ccc(-c2sccc2-c2cc(OC)c(OC)c(OC)c2)cc1 | 8.88 | 4.59 | 5.47 | – |
| COc1cc(-c2ccsc2-c2ccc3ccccc3c2)cc(OC)c1OC | 3.66 | 5.43 | 5.89 | – |
| CCOC(=O)c1cc(-c2cc(OC)c(OC)c(OC)c2)c(-c2ccc3ccccc3c2)s1 | 5.89 | 1.15 | 4.34 | – |
| CCOC(=O)c1cc(-c2cc(OC)c(OC)c(OC)c2)c(-c2ccc(OC)c(O)c2)s1 | 1.25 | 3.22 | 1.58 | – |
| CCOC(=O)c1cc(-c2ccc(OC)c([N+](=O)[O-])c2)c(-c2cc(OC)c(OC)c(OC)c2)s1 | 24 | 26.1 | 19.4 | – |

The next lines start with results.

| IC50 [1] [µM] | SMILES | IC50 [3] [µM] | IC50 [8] [µM] | further results |
| --- | --- | --- | --- | --- |
| > 100 | COc1ccc(-c2cc(C(=O)O)sc2-c2cc(OC)c(OC)c(OC)c2)cc1OCc1ccccc1 | > 100 | > 100 | – |
| > 100 | CCOC(=O)c1cc(-c2ccc(OC)c(OCc3ccccc3)c2)c(-c2cc(OC)c(OC)c(OC)c2)s1 | > 100 | > 100 | – |
| > 100 | CCOC(=O)c1cc(-c2cc(OC)c(OC)c(OC)c2)c(-c2ccc(OC)c(OCc3ccccc3)c2)s1 | > 100 | > 100 | – |
| 21.8 | COc1ccc(-c2cc(C(=O)O)sc2-c2cc(OC)c(OC)c(OC)c2)cc1O | 11.4 | 17.5 | – |
| 11.2 | COc1ccc(-c2sc(C(=O)O)cc2-c2cc(OC)c(OC)c(OC)c2)cc1O | 7.51 | 6.1 | – |
| 8.65 | COc1ccc(-c2cc(C(=O)O)sc2-c2cc(OC)c(OC)c(OC)c2)cc1 | 5.81 | 4.22 | – |
| > 100 | COc1ccc(-c2ccsc2-c2cc(OC)c(OC)c(OC)c2)cc1OCc1ccccc1 | > 100 | > 100 | – |
| > 100 | COc1ccc(-c2sc(C(=O)O)cc2-c2cc(OC)c(OC)c(OC)c2)cc1OCc1ccccc1 | > 100 | > 100 | – |
| 35.9 | COc1ccc(-c2sc(C(=O)O)cc2-c2cc(OC)c(OC)c(OC)c2)cc1[N+](=O)[O-] | 37.2 | 23.3 | – |
| 10.4 | COc1ccc(-c2sc(C(=O)O)cc2-c2cc(OC)c(OC)c(OC)c2)cc1 | 6.77 | 7.8 | – |
| > 100 | COc1ccc(-c2sccc2-c2cc(OC)c(OC)c(OC)c2)cc1OCc1ccccc1 | > 100 | > 100 | – |
| 5.64 | COc1cc(-c2cc(C(=O)O)sc2-c2ccc3ccccc3c2)cc(OC)c1OC | 13.4 | 0.38 | – |

From ChEMBL document CHEMBL3739424, “Synthesis and biological evaluation of 2,3-diarylthiophene analogues of combretastatin A-4” (Medchemcomm, 2015)
